SMILES strings stand for the structures.

A short description of series [1]: Acid and organic solution stability, HPLC-UV 250 nm. Particulars: for Appearance of the stability solution / Degradation / conversion to ezogabine in solution (summary) / Ezogabine Area: 5 mg/mL; for Degradation / conversion to ezogabine in solution (summary): up to 3 weeks. As for the experimental part: An HPLC-UV Vis method was developed using 0.1% Formic acid in water as mobile phase A and 0.1% Formic acid in acetonitrile as mobile Phase B. A gradient method was developed ramping from 10% A to 90% B over 8 minutes and then returning to 10% A at 8.5 minutes on a 4.6×50 mm Zorbax C-18 column. Injections of 10 uL of stability solutions were injected for analyte detection.
[…] Aliquots were collected at serial time points and then diluted to a nominal concentration of 100 ug/mL for injection to the HPLC and 250 nm monitored by the diode array detector. Data at approximately 10 days is presented.
Aliquots were collected at serial time points and then diluted to a nominal concentration of 100 ug/mL for injection to the HPLC and 250 nm monitored by the diode array detector.
(§1) It was also evaluated at 2 N HCl at 37° C. Aliquots were collected at serial time points and then diluted to a nominal concentration of 100 ug/mL for injection to the HPLC and 250 nm monitored by the diode array detector.
as §1, §1, §1

Series [2] can be described thus: Pharmacokinetics of ezogabine prodrugs in mouse (SC, PO). Particulars: male mice, PO 20 mg/kg Cmpd 1 dosed. As for the experimental part: (§2) Blood was diluted by 10% with these stabilizers.
(§3) Extraction of the molecules was conducted by taking a 50 uL aliquot of plasma and adding 200 uL of acetonitrile containing 200 ng/mL tolbutamide as the internal standard. Samples were precipitated in a 96 well plate, centrifuges and an aliquot transferred to a new plate, dried down under heat and nitrogen and then reconstituted in the initial mobile phase conditions of the LC-MS/MS method. […] A standard curve was prepared from 5000 ng/mL to 1 ng/mL for each analyte. Concentration data from the bioanalytical run was analyzed by Phoenix Winnonlin version 8 for noncompartmental sparse sampling PK analysis, plotting of concentration time curves and tabulation of PK parameters.
Animals were asphyxiated by carbon dioxide gas, blood was collected by cardiac stick and they were euthanized by cervical dislocation.

The conditions of series [3]: patients receiving ezogabine (POTIGA); cited from earlier work.
Series [4] is described as follows: Pharmacokinetics of ezogabine prodrugs in rat (IV, IM, PO). The protocol:
as §2
as §3, with “noncompartmental” for “noncompartmental sparse sampling”
150 uL of blood were collected at predesignated time points. At completion of the study animals were asphyxiated by carbon dioxide gas and exsanguinated for euthanasia.

The nature of series [5]: Rat PK at equimolar dose to Ezogabine (20 mg/kg) in 0.5% methylcellulose. Particulars: for AUClast/D / Cmax/D: male jugular vein cannulated rats, dose equimolar to Ezogabine 20 mg/kg, 0.5% methylcellulose in water, analyte the dosed prodrug; for AUClast/D: 24 hours. As for the experimental part:
(§4) Blood samples were collected at the same time points over 24 hours to generate a concentration time profile. Two male rats were dosed per group. Plasma samples were analyzed by LC/MS/MS and the resulting concentration time profiles and PK parameters are provided.
as §4, §4

Series [6] can be described thus: In vitro mouse plasma stability at 37° C. It counts as in vitro ADME. The following applies: 1000 ng/mL. The protocol:
(§5) Plasma was collected by the biomaterial vendor and kept frozen at −20° C.
(§6) The samples were analyzed by HPLC separation and mass spectrometry detection for prodrug amount, relative to a baseline time 0 control sample. Triplicate samples were generated at each time point and the peak area response was averaged and converted to a percent of baseline control.

Series [7] in a line: Stability in solvents on the benchtop exposed to light, HPLC-UV 230 nm. It counts as physicochemical. The following applies: benchtop exposed to light. As for the experimental part: Compounds in solvent were left on the benchtop exposed to light for up to 7 days since it is known that Compound 1 will degrade with light within 3-7 days.
Stability was assessed by taking an aliquot from the solubility vials at each test day. A single replicate was injected for each test condition.
Samples were injected onto an HPLC system with an aqueous mobile phase and acetonitrile organic phase and compounds were separated on a C8 50×2 mm column. Wavelength 230 nm was monitored for absorption and integrated for peak area while the mass spectrometer was used to confirm mass. Samples were tested on Day 1 and on subsequent days through Day 7.

Series [8] in a line: In vitro rat plasma stability at 37° C. It counts as in vitro ADME. The following applies: 1000 ng/mL. The protocol: as §5, §6
Series [9] can be described thus: Solvent solubility assessment by visual inspection. Format: physicochemical. Particulars: 0.1N Na2HPO4. As for the experimental part: Compounds were weighed and placed into a 4 dram vials and solvents were added to the target concentration. Compounds were vortex and visually inspected for particulates and considered soluble if clear upon visual inspection with and without magnification. Solubility was reported as either greater than (>) or less than (<) from the prepared concentration. […] It was evaluated at 10 mg/mL in 0.1 N NaCl and was freely soluble. It was evaluate at 1 mg/mL in 0.1 N NaOH and 0.1 N Na2HPO4 and was freely soluble. In ethanol and methanol it was freely soluble at a concentration of 75 mg/mL. […] It was freely soluble at 75 mg/mL in methanol and ethanol. It was soluble at 1 mg/mL in 1N HCl.

Series [10] relates to mechanical hypersensitivity in the CCI model. The series is described as follows: CCI model of neuropathic pain (pin prick, von Frey hairs). It counts as in vivo, Sprague Dawley rat. Particulars: 1 h after pretreatment. As for the experimental part: Compound 3 was tested for reversal of mechanical hypersensitivity to the pin prick test for hindlimb paw withdraw and the von Frey hairs for gram force mechanical allodynia in the CCI model of neuropathic pain. Male Sprague Dawley rats (n=8/group) were tested for baseline sensitivity on Day 1 (ipsilateral and contralateral paws) and administered XYG-203 orally; 40 mg/kg on Day 1, 20 mg/kg Day 3, 10 mg/kg Day 5, 5 mg/kg Day 7, 1 mg/kg Day 10 and baseline on Day 12. Mechanical hypersensitivity was tested 1 h after pretreatment. Data (mean±SD) were analyzed with a repeated measures ANOVA with Dunnet's adjustment for multiple comparisons.

One may read the Solubility as the concentration that dissolves in the medium under given conditions. A lower Solubility goes with a poorly soluble substance. `CCOC(=O)Nc1ccc(NCc2ccc(F)cc2)cc1N` [Compound 1, ezogabine]: the “Appearance of the stability solution” value in series [1] (acid solutions, room temperature) was “turning light purple (indicating degradation) by Day 2”. For the same compound, the Solubility entry in series [1] (low pH) is listed as “soluble”. The “Behaviour at low pH” value in [1] (low pH (1 N HCl) and simulated gastric fluid) was “degrades and forms a chromophore dimer”. Further, the Solubility entry in [1] (neutral pH) is reported as “not soluble”. The “Appearance of the stability solution” value in series [1] (organic solvent solutions, room temperature) was “did not begin turning purple until Day 7”. For the same compound, the Cmax/D in series [2] (analyte Cmpd 1) amounted to 148 ng/mL/mg/kg. In addition, the AUClast/D in series [2] (analyte Cmpd 1, AUClast 6 h) came to 190 ng·h/mL/mg/kg. Besides, in series [3], the “Adverse reaction: abnormal coordination” value was 7%, the “Adverse reaction: aphasia” value was 4%, the “Adverse reaction: asthenia” value is reported as 5% and the “Adverse reaction: balance disorder” value is 4%. In addition, in [3], the “Adverse reaction: blurred vision” value was 5%, the “Adverse reaction: confusional state” value is listed as 9%, the “Adverse reaction: diplopia” value was 7% and the “Adverse reaction: disturbance in attention” value was 6%. In addition, in series [3], the “Adverse reaction: dizziness” value is listed as 23%, the “Adverse reaction: dysarthria” value was 4%, the “Adverse reaction: fatigue” value is given as 15% and the “Adverse reaction: gait disturbance” value is given as 4%. Also, in [3], the “Adverse reaction: memory impairment” value was 6%, the “Adverse reaction: somnolence” value is listed as 22%, the “Adverse reaction: tremor” value was 8% and the “Adverse reaction: vertigo” value is recorded as 8%. Moreover, the AUClast/D in series [4] (male Sprague Dawley rats, PO 20 mg/kg Cmpd 1 dosed, analyte Cmpd 1, AUClast […] h) was determined as 280 ng·h/mL/mg/kg.

As for `CCOC(=O)Nc1ccc(NCc2ccc(F)cc2)cc1NC(=O)OC(C)OC(=O)C(C)C` (stereo not drawn) [Compound 3], the “Appearance of the stability solution” value in series [1] was “clear and colorless through Day 18”; in series [1] (9 days), “turned a golden yellow by Day 9”. Moreover, in series [1], the “Degradation / conversion to ezogabine in solution (summary)” value is given as “converts to ezogabine under acidic conditions but does not in organic solvent”. For the same compound, the “Ezogabine Area” value amounted to 400 mAU in series [1] (0.1N HCl, room temp., normal light, 433 h); 2881 mAU in series [1] (1N HCl, room temp., normal light, 97 h); 51 mAU in [1] (Acetonitrile, room temp., normal light, 435 h); 43 mAU in [1] (Ethanol, room temp., normal light, 390 h); 41 mAU in [1] (Methanol, room temp., normal light, 435 h). The AUClast/D in [5] was 0.0136 ng·h/mL/mg/kg. In [5], the Cmax/D was found to be 0.0273 ng/mL/mg/kg. For the same compound, the “Total exposure of ezogabine on a given molar dose relative to ezogabine” value in series [5] (male, rat, in vivo) was over 2 fold. For the same compound, the “Time to full degradation in vitro” value in series [6] and in [8] was at most 1 h each time. Further, the Stability in solvent entry in series [7] (0.1N HCl) is “stable over 4 days”; in [7] (1N HCl over 7 days), “not stable”; in series [7] (ethanol and methanol, degradation on Day 4), “soluble and stable through 3 days”. In addition, the “Exposure of the prodrug itself in systemic circulation” value in series [4] (rat, in vivo, po) was “very little exposure”. In addition, the Solubility in series [9] was under 1000 µg/mL. Also, the “Mechanical hypersensitivity versus baseline” value in series [10] (oral 5 mg/kg) is 95% confidence intervals did not cross the baseline mean. For the same compound, in [10] (oral 40 mg/kg), the “Gram force to paw lift (von Frey hairs)” value was “increased the gram force to paw lift significantly”. Also, the “Reduction of the latency of neuropathic ipsilateral paw withdrawal” value in series [10] (oral 40 mg/kg, pin prick, p=0.0003) was 9.2 s.

`CCOC(=O)Nc1ccc(NCc2ccc(F)cc2)cc1NC(=O)[C@H](N)CO` [Compound 6]: the “Degradation / conversion to ezogabine in solution (summary)” value in [1] is “very little degradation to ezogabine”. In addition, the “Ezogabine Area” value in series [1] (1N HCl, room temp., normal light, 437 h) was 58 mAU; in series [1] (2N HCl 37 C., 437 h), 461 mAU; in [1] (2N HCl, room temp., normal light, 437 h) it was 177 mAU; in series [1] (Methanol, room temp., normal light, 437 h) it was 184 mAU. For the same compound, the “Appearance of the stability solution” value in series [1] (18 days) is “remained clear and colorless through Day 18”. Besides, the AUClast/D in series [5] was 199 ng·h/mL/mg/kg. For the same compound, in series [5], the Cmax/D was determined as 233 ng/mL/mg/kg. Besides, the “Exposure of ezogabine (dose normalized AUC) compared with ezogabine itself” value in series [5] (rats, equimolar dose to Ezogabine 20 mg/kg) was “similar”.

These data come from US20240228434A1, “PRODRUGS OF KV7 CHANNEL OPENERS” (Xyzagen, Inc., priority 2021, published 2024).
